In the experiment the target is T1, WC-1/WC-2 (White Collar Complex) (Neurospora crassa, UniProt Q01371).
T1 construct: in vitro transcribe/translate full-length WC-1 using pAF60 as template and full length WC-2 using pGEM®/WC-2 as template; made in house; host or cells: cell-free: TNT-Coupled Reticulocyte Lysate system (Promega), templates pAF60 (WC-1) and pGEM/WC-2
Description: Electrophoretic mobility shift assay of in vitro-translated WC-1 and WC-2 binding to frq LRE probe, with or without flavin cofactor and light. The conditions noted are these: for Light regulation of LRE binding of in vitro-translated WC-1/WC-2: flavin added to the WC-1 translation reaction, 1 mM; for Average amount of faster migrating complex ± SEM / Average amount of slower migrating complex ± SEM: +FAD (1 mM in translation reaction), in vitro-translated WC-1 and WC-2, densitometry. The procedure:
In vitro coupled transcription/translation was conducted to produce WC-1 and WC-2 proteins for subsequent use in binding reactions. WC-1 and WC-2 together were able to bind to the LREs as not just one, but two distinct complexes with mobilities similar to those seen using nuclear extracts. […] These complexes were not seen when either protein was used alone or when unprogrammed lysate was used.
In vitro translation experiments and subsequent binding reactions were repeated, this time adding FMN or flavin adenine dinucleotide (FAD) to the WC-1 translation reaction. FAD is the flavin cofactor for both the blue light-sensing cryptochromes (Cashmore, et al. (1999) Science 284:760) and the Euglena photoactivated adenyl cyclase (Iseki, et al. (2001) Nature 415:1047).
When FAD was combined with WC-1 and WC-2, light caused a marked increase in the amount of slower migrating complex relative to the reactions not treated with light. Furthermore, a marked increase in the slower migrating complex was observed, as compared to reactions lacking FAD treated with or without light. […] The addition of FAD confers light responsiveness to the WCC, similar to that seen with the nuclear extracts. In the dark, a faster migrating WC-1/WC-2 dimeric complex dominates, yielding in the presence of light to a larger, slower migrating WC-1/WC-2 multimeric complex. WC-1 with FAD, exposed to light in the absence of WC-2, can initiate the mobility shift when subsequently combined in the dark with WC-2. Furthermore, WC-1 can be reconstituted with free FAD after in vitro translation. Thus, it is WC-1 that is the initial active protein partner in mediating the photoresponse.
The probes consisted of two oligonucleotides of equal length annealed together and end-labeled using T4 polynucleotide kinase and [^γ-32P]ATP. Unincorporated ATP was removed using a BIO-GEL® P-30 chromatography column (BIO-RAD®, Hercules, Calif.), and probe was diluted to a final concentration of 0.018 μM. Oligonucleotide pairs were annealed for use as probe or unlabeled competitor. Distal LRE probe, the unrelated 42 bp competitor, and the mutated distal LRE competitor were generated with oligonucleotide pairs ACF57/ACF58, ACF40/ACF48 and ACF67/ACF68, respectively. The proximal LRE probe and mutated proximal LRE competitor were generated with oligonucleotide pairs ACF62/ACF63 and ACF69/ACF70, respectively.
Binding reactions using nuclear protein extracts contained 1× binding buffer, […], 0.1 μg poly(dI-dC), 1 μl probe, 0.5 μl of normal rabbit sera (Pocono Rabbit Farm, Canadensis, Pa.), and 3 μg of nuclear protein extract, which was added last to the binding reactions, in a total volume of 20 μl. In reactions that contained antisera, 1 μl anti-WC-1, 1 μl anti-WC-2, or 0.5 μl anti-FRQ was used. Binding reactions using in vitro translated proteins contained 1× binding buffer, 1 μg poly(dI-dC), 1 μl probe, and 6 μl of the in vitro translation reaction in a total volume of 20 μl . Binding reactions were incubated for 30 minutes on ice prior to electrophoresis at 4° C. on nondenaturing 4% polyacrylamide gels containing 0.5×TBE and 2.5% (v/v) glycerol. Gels were dried and visualized using a PhosphorImager and IMAGEQUANT® software (Molecular Dynamics, Sunnyvale, Calif.). Binding reactions and gel electrophoreses were performed under red lights.
TNT®-Coupled Reticulocyte Lysate system (PROMEGA®, Madison, Wis.) was used according to the manufacturer's directions to in vitro transcribe/translate full-length WC-1 using pAF60 as template and full length WC-2 using pGEM®/WC-2 as template. 8 μM ZnCl2 was added to each reaction. Where indicated, FAD (SIGMA®, St. Louis, Mo.) and FMN (SIGMA®, St. Louis, Mo.) were added to a final concentration of 1 mM. Reactions were conducted under red lights.

SMILES strings stand for the structures.

The source of these data is US6733996B2, “Methods for regulating gene expression using light” (Trustees of Dartmouth College, priority 2002, dated 2004).

T1 sequence (Q01371 whole entry): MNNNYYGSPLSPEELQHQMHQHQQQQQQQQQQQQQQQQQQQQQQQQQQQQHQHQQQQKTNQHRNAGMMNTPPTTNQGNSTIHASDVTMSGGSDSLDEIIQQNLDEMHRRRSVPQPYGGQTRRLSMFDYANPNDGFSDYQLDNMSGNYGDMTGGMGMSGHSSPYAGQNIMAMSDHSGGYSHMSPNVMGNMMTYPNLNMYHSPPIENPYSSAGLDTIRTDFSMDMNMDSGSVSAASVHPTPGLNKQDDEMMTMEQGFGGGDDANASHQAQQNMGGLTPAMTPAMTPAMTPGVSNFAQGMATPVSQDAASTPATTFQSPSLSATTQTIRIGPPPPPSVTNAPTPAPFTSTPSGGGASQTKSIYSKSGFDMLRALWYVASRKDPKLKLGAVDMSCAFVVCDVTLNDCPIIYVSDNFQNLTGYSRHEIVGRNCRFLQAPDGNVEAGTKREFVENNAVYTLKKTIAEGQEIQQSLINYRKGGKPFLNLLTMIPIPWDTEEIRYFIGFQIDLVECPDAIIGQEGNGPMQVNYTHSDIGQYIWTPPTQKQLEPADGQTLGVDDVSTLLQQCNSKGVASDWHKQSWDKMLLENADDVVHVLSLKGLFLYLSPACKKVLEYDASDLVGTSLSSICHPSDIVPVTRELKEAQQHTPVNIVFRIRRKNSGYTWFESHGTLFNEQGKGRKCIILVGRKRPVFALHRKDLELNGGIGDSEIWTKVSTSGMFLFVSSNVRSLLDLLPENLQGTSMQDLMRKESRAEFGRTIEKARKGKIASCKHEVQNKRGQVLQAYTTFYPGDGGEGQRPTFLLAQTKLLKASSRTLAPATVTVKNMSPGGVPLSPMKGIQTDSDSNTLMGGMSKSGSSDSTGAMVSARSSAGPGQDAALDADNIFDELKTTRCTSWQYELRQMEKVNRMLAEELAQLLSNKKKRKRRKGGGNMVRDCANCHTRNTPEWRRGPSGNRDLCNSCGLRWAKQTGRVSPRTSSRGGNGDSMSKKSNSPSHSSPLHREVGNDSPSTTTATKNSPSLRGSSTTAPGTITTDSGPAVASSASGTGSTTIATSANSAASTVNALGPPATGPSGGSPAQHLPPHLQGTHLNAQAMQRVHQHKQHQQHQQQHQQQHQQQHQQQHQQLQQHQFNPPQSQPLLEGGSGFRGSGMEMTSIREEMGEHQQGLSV
T1 sequence (P78714 whole entry, further chain): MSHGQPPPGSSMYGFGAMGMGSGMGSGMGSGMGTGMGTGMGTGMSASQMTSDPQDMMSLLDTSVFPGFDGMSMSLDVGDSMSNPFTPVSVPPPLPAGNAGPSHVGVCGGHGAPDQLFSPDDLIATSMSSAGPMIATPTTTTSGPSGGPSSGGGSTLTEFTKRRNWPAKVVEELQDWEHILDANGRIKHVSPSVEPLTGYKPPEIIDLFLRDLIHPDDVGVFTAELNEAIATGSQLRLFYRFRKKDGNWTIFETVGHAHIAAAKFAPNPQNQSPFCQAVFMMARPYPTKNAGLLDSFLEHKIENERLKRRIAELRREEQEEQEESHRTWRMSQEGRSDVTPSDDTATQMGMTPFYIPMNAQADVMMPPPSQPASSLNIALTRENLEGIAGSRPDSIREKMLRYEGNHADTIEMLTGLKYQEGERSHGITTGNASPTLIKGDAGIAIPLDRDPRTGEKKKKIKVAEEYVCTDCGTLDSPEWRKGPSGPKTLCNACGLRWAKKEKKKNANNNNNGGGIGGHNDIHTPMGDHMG

`Cc1cc2nc3c(=O)[nH]c(=O)nc-3n(C[C@H](O)[C@H](O)[C@H](O)COP(=O)(O)O)c2cc1C` [FMN, flavin mononucleotide]: the “Light regulation of LRE binding of in vitro-translated WC-1/WC-2” value was “No light regulation of binding”.
As for `Cc1cc2nc3c(=O)[nH]c(=O)nc-3n(C[C@H](O)[C@H](O)[C@H](O)COP(=O)(O)OP(=O)(O)OC[C@H]3O[C@@H](n4cnc5c(N)ncnc54)[C@H](O)[C@@H]3O)c2cc1C` [FAD, flavin adenine dinucleotide], the “Light regulation of LRE binding of in vitro-translated WC-1/WC-2” value is “conferred light sensitivity”. Under “Dark”, the “Average amount of faster migrating complex ± SEM” value is given as 334119 ± 43086 and the “Average amount of slower migrating complex ± SEM” value worked out at 56912 ± 3055. Besides, under “Light”, the “Average amount of faster migrating complex ± SEM” value came to 264723 ± 22687 and the “Average amount of slower migrating complex ± SEM” value is recorded as 237163 ± 9706.
